What all share (format): cell-based
Assay [1] addresses T1, wild-type Androgen Receptor (AR-wt) (Homo sapiens (Human), UniProt P10275). In words: LNCaP-AR-wt AG reporter assay (agonist mode). As to conditions: for Emax: read-out: LNCaP-AR-wt AG MAX % Stim; for EC50: read-out: LNCaP-AR-wt AG pEC50 (converted). In general terms: A reporter such as luciferase makes a cellular process visible.
Assay [2] concerns the target T1, wild-type Androgen Receptor (AR-wt). In words: LNCaP-AR-wt ANT reporter assay (antagonist mode). Conditions: for Emax: read-out: LNCaP-AR-wt ANT MAX % Inh; for IC50: read-out: LNCaP-AR-wt ANT pIC50 (converted).
For assay [3], the target named is T2, F876L mutant Androgen Receptor (AR-F876L) (Homo sapiens (Human), UniProt P10275, F877L). In words: LNCaP-AR-F876L ANT reporter assay (antagonist mode). Conditions: for Emax: read-out: LNCaP-AR-F876L ANT MAX % Inh; for IC50: read-out: LNCaP-AR-F876L ANT pIC50 (converted).
T2 sequence (P10275 whole entry F877L): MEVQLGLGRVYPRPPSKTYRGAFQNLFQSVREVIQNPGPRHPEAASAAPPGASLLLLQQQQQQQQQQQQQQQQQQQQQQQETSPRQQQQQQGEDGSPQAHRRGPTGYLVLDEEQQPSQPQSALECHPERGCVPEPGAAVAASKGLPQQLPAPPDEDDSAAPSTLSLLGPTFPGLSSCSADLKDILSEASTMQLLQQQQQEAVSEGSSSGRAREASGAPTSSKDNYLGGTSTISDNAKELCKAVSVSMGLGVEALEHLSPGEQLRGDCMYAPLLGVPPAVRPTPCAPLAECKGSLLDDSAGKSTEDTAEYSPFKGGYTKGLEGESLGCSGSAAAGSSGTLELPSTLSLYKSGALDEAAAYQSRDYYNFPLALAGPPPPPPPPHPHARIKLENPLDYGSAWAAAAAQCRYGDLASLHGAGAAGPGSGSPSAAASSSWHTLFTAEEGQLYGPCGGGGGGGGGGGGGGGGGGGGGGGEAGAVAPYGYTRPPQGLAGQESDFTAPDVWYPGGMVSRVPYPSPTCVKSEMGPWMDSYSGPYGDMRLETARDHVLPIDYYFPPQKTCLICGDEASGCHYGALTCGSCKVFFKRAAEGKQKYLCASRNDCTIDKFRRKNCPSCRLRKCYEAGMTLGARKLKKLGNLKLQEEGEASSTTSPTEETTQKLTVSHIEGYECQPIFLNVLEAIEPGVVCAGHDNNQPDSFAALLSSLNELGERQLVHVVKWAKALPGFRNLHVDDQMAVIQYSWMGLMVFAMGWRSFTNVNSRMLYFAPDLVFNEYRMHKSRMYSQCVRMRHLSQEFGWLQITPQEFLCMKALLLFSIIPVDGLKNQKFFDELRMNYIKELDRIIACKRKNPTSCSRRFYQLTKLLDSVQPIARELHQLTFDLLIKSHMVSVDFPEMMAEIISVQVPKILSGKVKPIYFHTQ
Assay [4] addresses T2, F876L mutant Androgen Receptor (AR-F876L). In words: LNCaP-AR-F876L AG reporter assay (agonist mode). Conditions: for Emax: read-out: LNCaP-AR-F876L AG MAX % Stim; for EC50: read-out: LNCaP-AR-F876L AG pEC50 (converted).
The mark [5] stands for this setting: agonist mode, maximum % stimulation over tested concentration range.
Setting [6] is: agonist mode, pEC50 = −Log10(EC50 in Molar).
Setting [7] is: antagonist mode, maximum % inhibition of R1881 control response over tested concentration range.
[8] abbreviates: antagonist mode, pIC50 = −Log10(IC50 in Molar).
Setting [9] is: maximum % stimulation (agonist response) over the tested concentration range.
The mark [10] stands for this setting: maximum % inhibition of R1881 control response over the tested concentration range.

The results in this text go back to patent US10981926B2 (Janssen Pharmaceutica NV, priority 2016, dated 2021).

A value given as a limit tells only on which side of the number the result lay.

T1 sequence (P10275 whole entry): as the sequence (P10275 whole entry F877L) above, with L877F counted along it

In the case of `N#Cc1ncc(N2C(=O)C3(CCC3)N(c3ccc4[nH]c(CCO)nc4c3)C2=S)cc1C(F)(F)F`, the Emax stood at 0.4% in assay [1] (setting [5]), 0% in assay [2] (setting [7]), 100% in assay [3] (setting [7]) and 0.1% in assay [4] (setting [5]). The EC50 in assay [1] (setting [6]) and in assay [4] (setting [6]) was greater than 15100 nM in each case. Besides, the IC50 is 1740 nM in assay [2] (setting [8]) and 832 nM in assay [3] (setting [8]).

“3-chloro-5-[8-[1-(2-methoxyethyl)indazol-5-yl]-5-oxo-7-thioxo-6,8-diazaspiro[3.4]octan-6-yl]pyridine-2-carbonitrile [Cpd 171]”: the “LNCaP-AR-wt AG pEC50” value in assay [1] (setting [6]) is on record as less than 4.82. The “LNCaP-AR-wt AG MAX % Stim” value in assay [1] (setting [9]) stood at 0.2%. The “LNCaP-AR-wt ANT pIC50” value in assay [2] (setting [8]) is 6.45. In addition, the “LNCaP-AR-wt ANT MAX % Inh” value in assay [2] (setting [10]) is 101.3%. For the same compound, in assay [3] (setting [8]), the “LNCaP-AR-F876L ANT pIC50” value was found to be 6.80. The “LNCaP-AR-F876L ANT MAX % Inh” value in assay [3] (setting [10]) is reported as 100.8%. Also, the “LNCaP-AR-F876L AG pEC50” value in assay [4] (setting [6]) is less than 4.82. In addition, the “LNCaP-AR-F876L AG MAX % Stim” value in assay [4] (setting [9]) is 0.1%.

With `N#Cc1ncc(N2C(=O)C3(CCC3)N(c3ccc(OC4CCNCC4(F)F)cc3)C2=S)cc1C(F)(F)F` (racemic) [Cpd 136, (R,S)-5-[8-[4-[(3,3-difluoro-4-piperidyl)oxy]phenyl]-5-oxo-7-thioxo-6,8-diazaspiro[3.4]octan-6-yl]-3-(trifluoromethyl)pyridine-2-carbonitrile], the EC50 in assay [1] (setting [6]) and in assay [4] (setting [6]) was greater than 15100 nM in each case. For the same compound, the Emax in assay [1] (setting [9]) is -0.1%; in assay [2] (setting [10]), 105%; in assay [3] (setting [10]) it was 102%; in assay [4] (setting [9]) it was 0.3%. In addition, the IC50 is 132 nM in assay [2] (setting [8]) and 126 nM in assay [3] (setting [8]).

As to `CN1CCC(Oc2ccc(N3C(=S)N(c4cnc(C#N)c(C(F)(F)F)c4)C(=O)C34CCC4)cc2)C(F)(F)C1` (racemic) [Cpd 137, (R,S)-5-[8-[4-[(3,3-difluoro-1-methyl-4-piperidyl)oxy]phenyl]-5-oxo-7-thioxo-6,8-diazaspiro[3.4]octan-6-yl]-3-(trifluoromethyl)pyridine-2-carbonitrile], the EC50 in assay [1] (setting [6]) and in assay [4] (setting [6]) was greater than 15100 nM in each case. In addition, the Emax worked out at 0.3% in assay [1] (setting [9]), 102% in assay [2] (setting [10]), 98.7% in assay [3] (setting [10]) and 0.9% in assay [4] (setting [9]). Also, the IC50 in assay [2] (setting [8]) is 49 nM; in assay [3] (setting [8]) it was 83.2 nM.

As for `N#Cc1ncc(N2C(=O)C3(CCC3)N(c3ccc(OC4CCNC5(CCC5)C4)cc3)C2=S)cc1C(F)(F)F` (racemic) [Cpd 151, (R,S)-5-[8-[4-(9-azaspiro[3.5]nonan-6-yloxy)phenyl]-5-oxo-7-thioxo-6,8-diazaspiro[3.4]octan-6-yl]-3-(trifluoromethyl)pyridine-2-carbonitrile], the EC50 in assay [1] (setting [6]) and in assay [4] (setting [6]) was greater than 15100 nM in each case. Moreover, the Emax in assay [1] (setting [9]) is 0%; in assay [2] (setting [10]) it was 106%; in assay [3] (setting [10]), 104%; in assay [4] (setting [9]) it was -0.1%. Moreover, the IC50 is 234 nM in assay [2] (setting [8]) and 145 nM in assay [3] (setting [8]).

Consider `CN1CC[C@@H](Oc2ccc(N3C(=S)N(c4cnc(C#N)c(C(F)(F)F)c4)C(=O)C34CCC4)cc2)C[C@H]1C(F)(F)F` (racemic) [Cpd 158, 5-[8-[4-[[(2SR, 4RS)-1-methyl-2-(trifluoromethyl)-4-piperidyl]oxy]phenyl]-5-oxo-7-thioxo-6,8-diazaspiro[3.4]octan-6-yl]-3-(trifluoromethyl)pyridine-2-carbonitrile], for which the EC50 in assay [1] (setting [6]) and in assay [4] (setting [6]) was greater than 15100 nM in each case. The Emax in assay [1] (setting [9]) is 0.3%; in assay [2] (setting [10]), 100%; in assay [3] (setting [10]), 95.6%; in assay [4] (setting [9]), 2.3%. Further, the IC50 is 316 nM in assay [2] (setting [8]) and 427 nM in assay [3] (setting [8]).

Take `CN1CCC(Oc2ccc(N3C(=S)N(c4cnc(C#N)c(C(F)(F)F)c4)C(=O)C34CCC4)cc2)CC12CCC2` (racemic) [Cpd 178, (R,S)-5-[8-[4-[(9-methyl-9-azaspiro[3.5]nonan-6-yl)oxy]phenyl]-5-oxo-7-thioxo-6,8-diazaspiro[3.4]octan-6-yl]-3-(trifluoromethyl)pyridine-2-carbonitrile]: the EC50 in assay [1] (setting [6]) and in assay [4] (setting [6]) was greater than 15100 nM in each case. Moreover, the Emax in assay [1] (setting [9]) amounted to 0.3%; in assay [2] (setting [10]) it was 104%; in assay [3] (setting [10]) it was 102%; in assay [4] (setting [9]) it was 0%. The IC50 in assay [2] (setting [8]) is 174 nM; in assay [3] (setting [8]), 234 nM.

Turning to `N#Cc1ncc(N2C(=O)C3(CCC3)N(c3ccc(OC4CCNC5(CCC5)C4)nc3)C2=S)cc1C(F)(F)F` (racemic) [Cpd 188, (R,S)-5-[8-[6-(9-azaspiro[3.5]nonan-6-yloxy)-3-pyridyl]-5-oxo-7-thioxo-6,8-diazaspiro[3.4]octan-6-yl]-3-(trifluoromethyl)pyridine-2-carbonitrile], the Emax in assay [1] (setting [5]) is -0.2%; in assay [2] (setting [7]), 104%; in assay [3] (setting [7]), 104%; in assay [4] (setting [5]) it was 0.3%. The EC50 in assay [1] (setting [6]) and in assay [4] (setting [6]) was greater than 15100 nM in each case. For the same compound, the IC50 is 219 nM in assay [2] (setting [8]) and 170 nM in assay [3] (setting [8]).

As to `CN1CCC(Oc2ccc(N3C(=S)N(c4cnc(C#N)c(C(F)(F)F)c4)C(=O)C34CCC4)cn2)CC12CCC2` (racemic) [Cpd 194, (R,S)-5-[8-[6-[(9-methyl-9-azaspiro[3.5]nonan-6-yl)oxy]-3-pyridyl]-5-oxo-7-thioxo-6,8-diazaspiro[3.4]octan-6-yl]-3-(trifluoromethyl)pyridine-2-carbonitrile], the Emax was -0.3% in assay [1] (setting [5]), 103% in assay [2] (setting [7]), 103% in assay [3] (setting [7]) and 0.4% in assay [4] (setting [5]). The EC50 in assay [1] (setting [6]) and in assay [4] (setting [6]) was greater than 15100 nM in each case. The IC50 was 155 nM in assay [2] (setting [8]) and 186 nM in assay [3] (setting [8]).

Take `N#Cc1ncc(N2C(=O)C3(CCC3)N(c3ccc(O[C@@H]4CCN[C@H](CO)C4)cc3)C2=S)cc1C(F)(F)F` (racemic) [Cpd 223, 5-[8-(2SR,4RS)[4-[[2-(hydroxymethyl)-4-piperidyl]oxy]phenyl]-5-oxo-7-thioxo-6,8-diazaspiro[3.4]octan-6-yl]-3-(trifluoromethyl)pyridine-2-carbonitrile]: the Emax in assay [1] (setting [5]) was 0.5%; in assay [2] (setting [7]), 101%; in assay [3] (setting [7]), 100%; in assay [4] (setting [5]), 0.4%. The EC50 in assay [1] (setting [6]) and in assay [4] (setting [6]) was greater than 15100 nM each time. The IC50 in assay [2] (setting [8]) was 372 nM; in assay [3] (setting [8]) it was 229 nM.

With `CN1CC[C@@H](Oc2ccc(N3C(=S)N(c4cnc(C#N)c(C(F)(F)F)c4)C(=O)C34CCC4)cc2)C[C@H]1CO` (racemic) [Cpd 226, 5-[8-(2SR,4RS)[4-[[2-(hydroxymethyl)-1-methyl-4-piperidyl]oxy]phenyl]-5-oxo-7-thioxo-6,8-diazaspiro[3.4]octan-6-yl]-3-(trifluoromethyl)pyridine-2-carbonitrile], the Emax in assay [1] (setting [5]) came to 0.4%; in assay [2] (setting [7]), 101%; in assay [3] (setting [7]), 100%; in assay [4] (setting [5]), 0.2%. Besides, the EC50 in assay [1] (setting [6]) and in assay [4] (setting [6]) was greater than 15100 nM each time. The IC50 is 60.3 nM in assay [2] (setting [8]) and 36.3 nM in assay [3] (setting [8]).

`Cc1cc(N2C(=O)C3(CCC3)N(c3ccc(-c4cn[nH]c4)cc3)C2=S)cnc1C#N` [Cpd 3, 3-methyl-5-[5-oxo-8-[4-(1H-pyrazol-4-yl)phenyl]-7-thioxo-6,8-diazaspiro[3.4]octan-6-yl]pyridine-2-carbonitrile]: the EC50 in assay [1] (setting [6]) and in assay [4] (setting [6]) was greater than 15100 nM each time. In addition, the Emax in assay [1] (setting [9]) worked out at 2.2%; in assay [2] (setting [10]), 97.8%; in assay [3] (setting [10]), 98.9%; in assay [4] (setting [9]), 1.8%. In addition, the results for the IC50 in assay [2] (setting [8]) and in assay [3] (setting [8]) were 407 nM and 324 nM, respectively.

`COc1cc(N2C(=O)C3(CCC3)N(c3ccc(CN4CCNCC4)cc3)C2=S)cnc1C#N` [Cpd 229, 3-methoxy-5-[5-oxo-8-[4-(piperazin-1-ylmethyl)phenyl]-7-thioxo-6,8-diazaspiro[3.4]octan-6-yl]pyridine-2-carbonitrile]: the figures for the Emax in assay [1] (setting [5]), in assay [3] (setting [7]) and in assay [4] (setting [5]) were 0%, 101% and 0%, respectively. For the same compound, the EC50 in assay [1] (setting [6]) and in assay [4] (setting [6]) was greater than 15100 nM throughout. For the same compound, the IC50 in assay [3] (setting [8]) is 129 nM.
